The values that follow come from US7560473B2 (Institute of Pharmacology and Toxicology Academy of …, priority 2001, dated 2009).

Experiment [1] has as its system SHRsp. Put plainly: Prophylaxis and treatment of SHRsp cerebral apoplexy. It counts as in vivo, rats. The note with it: for Survival time: control 4.6 ± 3.8; for Survival time / Period needed for onset of cerebral apoplexy: means ± SD; for Period needed for onset of cerebral apoplexy: control 48.3 ± 7.4; for Death rate of cerebral apoplexy / Rate of cerebral apoplexy: n 12; for Death rate of cerebral apoplexy: control 50.0; for Rate of cerebral apoplexy: control 83.3. The protocol:
Biological activity experiment 8 the prophylaxis and treatment of cerebral apoplexy with compound 1 of formula Ia
The methods of biological activity experiments were carried out as follows: Desired concentration of compound 1 was prepared with distilled water, while desired concentration of nimodipine was prepared with market available Jinglongyu^T oil. 30 male and 30 female SHRsp (10 weeks old, 120-180 g) were purchased from the vascular disease research center of Academy of Military Medical Science. All SHRsp were divided randomly into five groups based on blood pressure, body weight and sex: control group (fed with equal amount of Jinglongyu^T oil), […], […], […], and 4.0 mg.kg^−1d^−1 nimodipine treated group. Each group contained 12 animals and 4-5 animals were fed in a cage. The feedstaff (containing 23-24% protein) was purchased from experimental animal center of Academy of Military Medical Science. The animals were fed with tap water containing 1% NaCl to accelerate the onset of cerebral apoplexy. 12 normal WKY rats (with the same age and sex with the above) were selected as control, and fed with tap water and the same feedstuff. When reached 11 weeks old, the animals were fed with drugs for experiments.

Experiment [2] has as its system jirds. In words: Pan-cerebral ischemia-reperfusion injury in jirds (BCAO). The experiment is classed as in vivo. The conditions noted are these: 7 days, dosage-dependent. Here is the method:
Biological Activity Experiment 7 The Protective Effects of compound 1 on Pan-Cerebral Ischemia-Reperfusion Injury in Jirds
The methods of biological activity experiment were carried out as follows: equal amounts of male and female jirds (60-70 g) were subjected to bilateral cervical aorta occlusion (BCAO) under narcotism. The drugs or equal amounts of physiological saline solution were injected peritoneally at 30 min before occlusion. After the blood flow in the bilateral cervical aorta was blocked for 5 min, reperfusion was restored and the drug was administered once a day for 7 days. During the BCAO, the body temperature was maintained at 37° C. In the control group, the cervical aorta was only exposed, while not blocked for blood flow. The animals were divided in 6 groups randomly: control group, ischemic group and compound-treated group (0.5, 1.0, 2.0 and 4.0 mg.kg^−1, ip). 7 days after BCAO, the animals were deeply anesthetized by injecting peritoneally 80 mg.kg^−1 pentobarbitol sodium, and perfused with 50 mL physiological saline solution and 4% paraformaldehyde through heart. The brain was dissected, immersed in 4% paraformaldehyde for 24 h, dehydrated, cleared, embedded with paraffin, sectioned and stained with HE. TUNEL staining was employed to detect the nerve apoptosis.

Experiment [3] relates to outward potassium currents in smooth muscle cells derived from intrapulmonary arteries. In words: Whole cell recording of outward potassium currents in intrapulmonary arterial SMCs and glibenclamide antagonism. The experiment is classed as cell-based, Wistar rats. The protocol: Effects of Compound 1 on Potassium Currents in Isolated Intrapulmonary arterial SMCs and Glibenclamide Antagonism
The outward potassium currents were recorded in smooth muscle cells derived from intrapulmonary arteries of normotensive rats. Cells were sealed, clamped at −70 mV and depolarized to +50 mV at an increasing step of 10 mV with 100 ms duration. After application of compound 1 at the concentration of 10 μmol L^−1, the amplitude of the currents in 5/8 cells was increased to 115.4±2.8% compared with control recorded before compound application (P<0.01 n=5). While in the presence of both compound 1 and glibenclamide at the concentration of 10 μmol L^−1 and 30 μmol L^−1 respectively, the amplitude of the outward potassium currents in 7/7 cells was detected to be 83.1±8.3% of control, which was decreased compared with the presence of compound 1 only (P<0.01 n=7).
2. Preparation of smooth muscle cells from intrapulmonary arteries: Male Wistar rats were killed by decapitation. The intrapulmonary arteries were isolated and moved quickly into physiological salt solutions (PSS, 4° C.) Then the arteries were cut longitudinally and cut into small segments after scraping off the endothelium gently with a cotton swab. The fragments were then incubated at 37° C. in Ca^2+-free PSS for 20 to 30 minutes. […]

Marks after values point to notes of the source that are not given here.

Regarding `CC(C)NC(C)(C)C(C)C` [compound 1, N-(1-methylethyl)-2,3-dimethyl-2-butylamine], in experiment [1] (0.25 mg · kg^−1d^−1 fed), the Survival time was 7.2 ± 5.3 days, the “Period needed for onset of cerebral apoplexy” value (“Period needed for onset” for short) was determined as 58.6 ± 14.1 days, the “Death rate of cerebral apoplexy” value came to 27.3% and the “Rate of cerebral apoplexy” value was found to be 72.7%. Further, in experiment [1] (1 mg · kg^−1d^−1 fed), the Survival time was determined as 10.2 ± 4.1 days, the “Period needed for onset” value came out at 60.8 ± 18.9 days, the “Death rate of cerebral apoplexy” value is given as 20.0% and the “Rate of cerebral apoplexy” value was 40.0* %. Also, in experiment [1] (4 mg · kg^−1d^−1 fed), the Survival time worked out at 11.8 ± 3.2 days, the “Period needed for onset” value came out at 68.6 ± 16.5 days, the “Death rate of cerebral apoplexy” value was 8.3* % and the “Rate of cerebral apoplexy” value is 33.3* %. For the same compound, the “nerve symptom of cerebral apoplexy (in words)” value in experiment [1] (SHRsp) is reported as “significantly improve the nerve symptom”. In experiment [2] (0.5-4.0 mg.kg^−1.d^−1 ip), the “number of dead pyramidal nerve of hippocampal CA1 region (HE staining)” value was “significantly decreased the number of dead pyramidal nerve”. The “apoptosis of pyramidal nerve of hippocampal CA1 region (TUNEL)” value in experiment [2] (0.5-4.0 mg.kg^−1 ip) was “significantly alleviate the apoptosis”. The “amplitude of the outward potassium currents compared with control” value in experiment [3] (compound 1 10 μmol L^−1, 5/8 cells, n=5) is 115.4±2.8%. Moreover, in experiment [3] (compound 1 10 μmol L^−1 in the presence of glibenclamide 30 μmol L^−1, 7/7 cells, n=7), the “amplitude of the outward potassium currents, of control” value is reported as 83.1±8.3%.
